# Reference: patent US20240115670A1, “FIBROBLAST ACTIVATION PROTEIN MODULATION TO ALTER IMMUNE CELL MIGRATION AND TUMOR INFILTRATION” (Georgetown University, priority 2021, published 2024)
# Entries after “also recorded” stand apart in the source; their conditions may differ.
# Tests used:
# [1] = system: NK cell line
# [2] = molecular target: T1, DPPIV (Homo sapiens, UniProt P27487); assay: Fluorescent peptide dipeptidyl peptidase activity assay; assay type: biochemical; settings: fluorescent peptide substrate
# T1 construct: purchased R&D systems 9168-SE
# T1 sequence (P27487 whole entry): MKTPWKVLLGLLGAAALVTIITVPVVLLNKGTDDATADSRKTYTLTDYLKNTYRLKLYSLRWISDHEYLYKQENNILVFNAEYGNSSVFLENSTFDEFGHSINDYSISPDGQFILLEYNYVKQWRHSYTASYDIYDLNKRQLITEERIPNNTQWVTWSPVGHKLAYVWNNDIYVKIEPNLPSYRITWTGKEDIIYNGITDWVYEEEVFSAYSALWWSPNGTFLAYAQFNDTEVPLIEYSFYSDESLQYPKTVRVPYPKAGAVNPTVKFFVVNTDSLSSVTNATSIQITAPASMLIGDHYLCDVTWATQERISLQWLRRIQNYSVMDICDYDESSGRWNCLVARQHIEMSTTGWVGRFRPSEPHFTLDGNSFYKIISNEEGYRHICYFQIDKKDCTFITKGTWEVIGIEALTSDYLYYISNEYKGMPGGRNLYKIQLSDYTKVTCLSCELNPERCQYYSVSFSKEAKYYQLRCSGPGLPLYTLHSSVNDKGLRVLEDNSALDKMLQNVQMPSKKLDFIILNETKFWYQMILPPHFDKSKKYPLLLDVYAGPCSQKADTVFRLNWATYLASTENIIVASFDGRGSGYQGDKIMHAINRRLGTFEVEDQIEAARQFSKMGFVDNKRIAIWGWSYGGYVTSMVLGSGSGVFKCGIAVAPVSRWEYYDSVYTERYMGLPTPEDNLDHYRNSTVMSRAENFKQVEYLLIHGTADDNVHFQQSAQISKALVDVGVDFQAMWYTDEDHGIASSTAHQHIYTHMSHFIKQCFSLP
# Protocol: (§1) 100 mM stock of dipeptidyl peptidase substrate (Acetyl-Aka-Gly-Pro-AFC) (Anaspec, cat #AS-24126) was made by resuspending lyophilized substrate in DMSO. On the day of the assay, substrate stock was then diluted 1:1000 in activity assay buffer (50 mM Tris, 1 M NaCl, 1 mg/mL BSA, pH 7.5). A standard curve was generated using rFAP (R&D systems, cat #3715-SE-010) or rDPP4 (R&D systems, cat #9168-SE) and 50 uL of recombinant protein plus 50 uL of substrate was added to each well of a 96 Well Flat Clear Bottom White Polystyrene TC-Treated Microplates (Corning, cat #3903). The plate was incubated for 30 minutes at 37° C. then read on a PerkinElmer EnVision Multimode Plate Reader with 390-400 nm excitation and […] emission wavelengths. To test tumor lysates, 50-100 mg of snap frozen tumors were homogenized in 100-300 uL activity assay buffer using a Kimble Biomasher II closed system tissue grinder (DWK Life Sciences, cat #749625-0020). Protein concentration was determined using Bio-rad protein concentration DC Protein Assay Kit II (Bio-rad, cat #5000112). All samples were diluted to equal protein concentrations using activity assay buffer then added at 50 uL plus 50 uL substrate per well. Final concentration of FAP per well was calculated using the standard curve. Data were compiled and assessed for significance using GraphPad Prism 9 for an unpaired, two-tailed t-test.
# [3] = molecular target: T2, FAP (Homo sapiens, UniProt Q12884); assay: as above; assay type: biochemical; settings: fluorescent peptide substrate
# T2 construct: purchased R&D systems 3715-SE-010
# T2 sequence (Q12884 whole entry): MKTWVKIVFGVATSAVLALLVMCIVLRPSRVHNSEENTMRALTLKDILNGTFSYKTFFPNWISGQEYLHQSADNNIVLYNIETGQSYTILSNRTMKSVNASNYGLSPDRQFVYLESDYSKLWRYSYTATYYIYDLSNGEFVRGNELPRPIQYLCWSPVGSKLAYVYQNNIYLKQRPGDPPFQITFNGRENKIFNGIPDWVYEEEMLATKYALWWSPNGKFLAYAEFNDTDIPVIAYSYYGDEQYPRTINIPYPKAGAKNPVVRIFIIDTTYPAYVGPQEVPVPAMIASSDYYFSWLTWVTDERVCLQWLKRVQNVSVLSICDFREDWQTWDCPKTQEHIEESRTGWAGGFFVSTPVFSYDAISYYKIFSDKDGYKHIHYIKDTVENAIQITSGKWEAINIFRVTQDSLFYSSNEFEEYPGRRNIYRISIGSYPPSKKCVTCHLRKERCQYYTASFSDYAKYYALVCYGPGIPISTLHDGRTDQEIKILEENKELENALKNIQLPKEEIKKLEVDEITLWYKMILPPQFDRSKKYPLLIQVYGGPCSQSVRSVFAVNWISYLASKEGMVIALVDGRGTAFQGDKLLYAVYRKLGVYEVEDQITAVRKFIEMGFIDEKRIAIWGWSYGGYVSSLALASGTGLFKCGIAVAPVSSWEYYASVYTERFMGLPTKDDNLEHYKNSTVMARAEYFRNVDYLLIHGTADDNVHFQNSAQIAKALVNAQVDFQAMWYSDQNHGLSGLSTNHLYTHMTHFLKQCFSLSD
# Protocol: as §1
# [4] = system: primary human NK cells; assay: 2D live imaging of primary NK cell migration on EL08.1D2 stromal cells; assay type: cell-based; settings: 10 uM Cpd60 vs vehicle; three donors
# Protocol: 2D migration studies were done as previously reported. In brief, EL08.1D2 stromal cells were grown to a confluent monolayer on Lab-Tek chamber slides pre-coated with 0.1% gelatin (Stemcell Technologies). […] Cells were imaged in 96-well ImageLock plates (Essen Bioscience) on the IncuCyte ZOOM Live-Cell Analysis System (Essen Bioscience) at 37° C. every 2 min in the phase-contrast mode (10× objective). Tracking of live cells was done using the manual tracking feature in Volocity or FIJI. Tracks were plotted using the Chemotaxis plugin of FUI. Cells that were in the field of imaging for fewer than two frames were discarded, as were cells which were non-adherent or floating. EL08.1D2 cells were used as de facto fiducial markers to ensure that neither they or the microscope stage was drifting and causing apparent NK cell movement.
# Length and displacement measurements were derived directly from tracked cells and graphed using GraphPad software. Velocity data was obtained by dividing the total track length by the time of imaging.
# 2D migration studies were done as previously reported (31, 32). In brief, EL08.1D2 stromal cells were grown to a confluent monolayer on flat-bottomed 96 well ImageLock plates (Essen Bioscience) pre-coated with 0.1% gelatin (Stemcell Technologies). […] Freshly isolated human NK cells were imaged in 96-well on the IncuCyte ZOOM Live-Cell Analysis System (Essen Bioscience) at 37° C. every 2 min in the phase-contrast mode (10× objective). Tracking of live cells was done using the manual tracking feature in Fiji (33). Tracks were plotted using the Chemotaxis plugin of FIJI. Cells that were in the field of imaging for fewer than two frames were discarded, as were cells which were non-adherent or floating. EL08.1D2 cells were used as de facto fiducial markers to ensure that neither they or the microscope stage was drifting and causing apparent NK cell movement. Length and displacement measurements were derived directly from tracked cells and graphed using GraphPad software. Velocity data was obtained by dividing the total track length by the time of imaging.
# [5] = system: PANC-1 cell clusters; assay: NK cell lysis of PANC-1 clusters in 3D matrix (cleaved caspase 3); assay type: cell-based, human; settings: 10 uM Cpd60
# Protocol: (§2) 3D clusters were generated, embedded and stained as previously described. In brief, clusters were generated by plating 1,000 cells per well into 96-well Nunclon Sphera low adhesion plates (Thermo Scientific, cat #174925) and incubated overnight at 37° C. The following day, 6 clusters were embedded into an ECM containing 2,000 NK cells and plated into one well of a Nunc Lab-Tek II 8-well chamber slide (ThermoScientific, cat #154534PK). The ECM mixture consisted of 20% growth factor reduced Matrigel (Corning, 10-12 mg/ml stock concentration, #354230) and 80% rat tail collagen type I at 3 mg/mL (gibco, A1048301). Cells were either imaged for the following 24 hours every 30 minutes using the Zeiss LSM800 scanning confocal microscope or allowed to incubate overnight at 37° C. After 24 hours, cells in matrix were fixed with 5.4% formalin for 1 hour, permeabilized with 0.5% Triton-X and blocked using goat serum. For invasion assays, NK-92-GFP cells were stained with anti-GFP (ThermoFisher, cat #A-11122). For the cell lysis assays clusters were stained using anti-cleaved caspase 3 (Cell Signaling, cat #9661). Hoechst 33342, phalloidin, and secondary antibodies labeled with Alexa Fluor 488 nm, 546 nm, 647 nm, or 680 nm (Invitrogen) were used.
# 3D clusters were generated, embedded and stained as previously described (34, 35). […]
# [6] = system: NK92-GFP cells; assay: NK92-GFP infiltration into cell clusters embedded in 3D matrix; assay type: cell-based, human; settings: 10 uM Cpd60
# Protocol: as §2
# 3D clusters were generated, embedded and stained as previously described (34, 35). In brief, clusters were generated by plating 1,000 cells per well into 96-well Nunclon Sphera low adhesion plates (Thermo Scientific, cat #174925) and incubated overnight at 37° C. The following day, 6 clusters were embedded into an ECM containing 2,000 NK cells were plated into one well of a Nunc Lab-Tek II 8-well chamber slide (ThermoScientific, cat #154534PK). To ensure equal distribution of NK cells in Matrigel, the NK cells were first suspended in the Matrigel stock, which was then aliquoted for individual cluster embedding. The ECM mixture consisted of 20% growth factor reduced Matrigel (Corning, 10-12 mg/ml stock concentration, #354230) and 80% rat tail collagen type I at 3 mg/mL (Gibco, A1048301). […]
# [7] = system: FAP; settings: mouse, in vivo; cited from earlier work
smiles,measurement,setting,value
N#C[C@@H]1CC(F)(F)CN1C(=O)CNC(=O)c1ccnc2ccccc12 [Cpd60],effect on NK cell viability,[1],no effect
same,inhibition of DPPIV dipeptidyl peptidase activity,[2],"but not FAP's most closely related protein, DPPIV; also recorded: not DPPIV"
same,inhibition of FAP dipeptidyl peptidase activity,[3],inhibits FAP
same,Euclidian distance traveled by NK cells,[4],no significant impact
same,NK cell velocity,[4],significantly reduced
same,accumulated distance traveled by NK cells,[4],significantly reduced
same,PANC-1 cell apoptosis (cleaved caspase 3) in 3D cultures with NK92,[5]; NK92 cells,significantly reduced
same,donor NK cell lysis of PANC-1 cells in 3D,"[5]; NK cells from two donors, normalized to cluster area",reduced
same,NK92-GFP cell infiltration into PANC-1 clusters embedded in matrix,[6]; 24-hour coculture,significantly reduced
same,NK92-GFP cell infiltration into PSC clusters embedded in matrix,[6]; 24-hour coculture,significantly reduced
same,cluster size,[6]; 80% collagen/20% Matrigel,no effect
same,FAP inhibition in murine models,[7],selectively and completely inhibits FAP
